Literature values in US12496272B1, “Stable epinephrine suspension formulation for inhalation with HFO propellant” (Amphastar Pharmaceuticals, Inc., priority 2024, dated 2025).

| SMILES | Water solubility (at 25° C.) | Log P (octanol/water) |
| --- | --- | --- |
| FCC(F)(F)F [HFA-134a, 1,1,1,2-tetrafluoroethane] | 2220 at 25 °C ppm | 1.1 |
| FC(C(F)(F)F)C(F)(F)F [HFA-227, 1,1,1,2,3,3,3-heptafluoropropane] |  | 2.1 |
| F/C=C/C(F)(F)F [HFO-1234ze(E), trans-1,3,3,3-tetrafluoropropene] |  | 1.3 |
